From article PMC4099174 (Journal of Medicinal Chemistry, 2014)
Read-outs that look alike come from different tables or passages of the source. Marks after values point to notes of the source that are not given here.

Experiments:
[1] = system: Bloodstream form culture of T. b. brucei; assay: Cell cycle analysis by FACS (propidium iodide); format: cell-based, Trypanosoma brucei brucei; details: concentration twice the EC50, 18 h
Description: For cell cycle analysis, samples (1.5 × 10^6 cells) were collected, centrifuged (1400g at 4 °C for 5 min), and washed in trypanosome dilution buffer (TDB). The cell pellets were gently suspended in 50 μL of TDB and permeabilized by adding 1 μL of saponin (25 mg/mL) for 3 min. It was then mixed with another 450 μL of TDB. RNase and propidium iodide (PI) were added to the suspension at final concentrations of 10 and 20 μg/mL, respectively, and the samples were incubated at room temperature for 30 min and then stored at 4 °C. The DNA content of PI-stained cells and the percentage of cells in each phase of the cell cycle (10 000 cells per sample) were analyzed with a Becton Dickinson FACSCalibur flow cytometer (BD Biosciences) using BD CellQuest Pro version 4.0.2 software.
Figure S3. Cell Cycle analysis of parasites upon dosage with NVP-BEZ235 derivative.
Bloodstream form culture of T. b. brucei was subjected to different drugs and analyzed by
Fluorescencecactivated cell sorter (FACS) for DNA content stained by propidium iodide (PI).
Cell cultures were incubated during 18 h with various NVPcBEZ235 derivatives using DMSO as
a control treatment. Mean ± SD of three independent experiments are shown.

[2] = system: phosphorylated PIs (PIP, PIP3) in T. brucei cells; assay: Phospholipidomics analysis (ES-MS of lipid extracts); format: cell-based, Trypanosoma brucei; details: 200 nM, 12 h; negative ion mode scans 950–1300 m/z
Source text: We originally selected 1 to investigate its potential as an trypanocidal agent on the basis of its activity as a PI3K/mTOR inhibitor in mammalian cells and the fact that PI3K activity is essential for the bloodstream form of the T. brucei parasite.[25] In the interest of elucidating the potential mechanism of action against T. brucei cells, we performed a lipidomic analysis to discern if PI kinases are likely targets of these analogues. Lipid extracts of cells grown in the presence of the best compounds at sublethal doses (200 nM) for 12 h were analyzed by ES-MS. […] There were no significant differences in the phosphatidylcholine (PC) and sphingomylein (SM) species between the control and cells grown in the presence of the other compounds (Figure S1). […] Alternatively, as is often the case, changes in the lipid profile could be a reflection in the cells succumbing to (or adapting to) a defect in a major cellular process, such as endo- or exocytosis or cell cycle arrest.
Because these compounds are thought to target PI3K, negative ion mode scans between 950 and 1300 m/z were conducted to focus upon singly and multiply phosphorylated PIs.
Total lipids from mid log phase cells were extracted by the method of Bligh and Dyer.[30] Briefly, mid log phase cells were collected by centrifugation (800g, 10 min), washed with PBS, resuspended in 100 μL of TDB-glucose, transferred to a glass tube containing 375 μL of 1:2 (v/v) CHCl3/MeOH, and vortexed. The sample was agitated vigorously for a further 10–15 min. The sample was made biphasic by the addition of 125 μL of CHCl3 and vortexed, and then 125 μL of H2O was added. The sample was vortexed again and centrifuged at 3000g at rt for 10 min. The lower (organic) phase was transferred into a new glass vial, and the aqueous phase was re-extracted with the fresh lower phase. The resultant lower phase lipid extract was dried under a stream of nitrogen and stored at 4 °C.
Lipid extracts were dissolved in 15 μL of CHCl3/MeOH (1:2) and 15 μL of acetonitrile/isopropanol/water (6:7:2) and analyzed with a triple quadrupole mass spectrometer (Absceix 4000 QTrap) equipped with a nanoelectrospray source. […] The lipid extracts were analyzed in both positive and negative ion modes using a capillary voltage of 1.25 kV. […] Tandem mass spectra (MS/MS) were obtained with collision energies as follows: 35–45 V, PC/SM in positive ion mode, parent-ion scanning of m/z 184; 35–55 V, PI in negative ion mode, parent-ion scanning of m/z 241; 35–65 V, PE in negative ion mode, parent-ion scanning of m/z 196; 20–35 V, PS in negative ion mode, neutral loss scanning of m/z 87; and 40–90 V, for all glycerophospholipids (including PA, PG, and cardiolipin) detected by precursor scanning for m/z 153 in negative ion mode. […]

[3] = system: bloodstream form of T. brucei; assay: Transferrin uptake (receptor-mediated endocytosis); format: cell-based, Trypanosoma brucei; details: concentration twice the EC50, 18 h
Source text: Highly efficient and rapid endocytosis is one of the most important cellular processes for this infective parasite to survive and multiply within the bloodstream of the host, and the activity of TbPI3KIII is essential for this process.[25] To gain insight on the possible target(s) of our compounds, we carried out transferrin uptake experiments to measure receptor-mediated endocytosis after drug treatment. […] Compound 16e induced a phenotype defective in endocytosis (Figure 3); however, the PIP3 molecular species identified (42:7-9) was not the same PIP3 molecular species identified in WT cells (44:9-12).
Two million trypanosomes were harvested and washed with TDB-glucose plus 1% BSA, resuspended in 250 μL in the same buffer, and incubated for 10 min at 37 °C prior to the addition of 5 μg of AlexaFluor 488-conjugated human holo-Tf (Invitrogen). Incubations were carried out for 0 (no Tf) or 3 min at 37 °C, after which cells were immediately fixed in 4 °C in 1% PFA diluted in cold PBS for at least 1 h. Parasites were finally washed twice with PBS and analyzed with a Becton Dickinson FACSCalibur flow cytometer (BD Biosciences) using BD CellQuest Pro version 4.0.2 software.

[4] = Table 2, Selectivity = TC50/EC50
[5] = Table 1, Selectivity = TC50/EC50 (HepG2 / T. brucei)

In the case of `Cn1c(=O)n(-c2ccc(CC#N)cc2)c2c3cc(-c4ccncc4)ccc3ncc21` [Compound 16d, 2-(4-(3-Methyl-2-oxo-8-(pyridin-4-yl)-2,3-dihydro-1H-imidazo[4,5-c]quinolin-1-yl)phenyl)acetonitrile], the Selectivity (HepG2 cell line; [4]) is reported as over 560.

For `Cn1c(=O)n(-c2ccccc2)c2c3cc(-c4cnc5ccccc5c4)ccc3ncc21` [Compound 16c, 3-Methyl-1-phenyl-8-(quinolin-3-yl)-1H-imidazo[4,5-c]quinolin-2(3H)-one], the Selectivity (HepG2 cell line; [4]) was over 1000.

With `Cn1c(=O)n(-c2ccc(C(C)(C)C#N)cc2)c2c3cc(N4CCOCC4)ccc3ncc21` [Compound 5b, 2-Methyl-2-(4-(3-methyl-8-morpholino-2-oxo-2,3-dihydro-1H-imidazo[4,5-c]quinolin-1-yl)phenyl)propanenitrile] the Selectivity (HepG2 cell line; [5]) was over 24.

`CC(=O)Nc1ccc2ncc3c(c2c1)n(-c1ccc(C(C)(C)C#N)cc1)c(=O)n3C` [Compound 7, N-(1-(4-(2-Cyanopropan-2-yl)phenyl)-3-methyl-2-oxo-2,3-dihydro-1H-imidazo[4,5-c]quinolin-8-yl)acetamide] showed a Selectivity (HepG2 cell line; [5]) of over 5.

Work on `Cn1c(=O)n(-c2ccc(C(C)(C)C#N)cc2)c2c3cc(N)ccc3ncc21` [Compound 6, 2-(4-(8-Amino-3-methyl-2-oxo-2,3-dihydro-1H-imidazo[4,5-c]quinolin-1-yl)phenyl)-2-methylpropanenitrile] yielded a Selectivity (HepG2 cell line; [5]) of over 4.

`Cn1c(=O)n(-c2ccc(C(C)(C)C#N)cc2)c2c3cc(-c4cccnc4)ccc3ncc21` [Compound 4b, 2-Methyl-2-(4-(3-methyl-2-oxo-8-(pyridin-3-yl)-2,3-dihydro-1H-imidazo[4,5-c]quinolin-1-yl)phenyl)propanenitrile] was tested, and the “HepG2 cytotoxicity TC50” value (HepG2 cell line; human, 48 h) was 575 nM.

Compound `Cn1c(=O)n(-c2ccc(C(F)(F)F)cc2)c2c3cc(-c4cnc5ccccc5c4)ccc3ncc21` [Compound 16a, 3-Methyl-8-(quinolin-3-yl)-1-(4-(trifluoromethyl)phenyl)-1H-imidazo[4,5-c]quinolin-2(3H)-one] has a Selectivity (HepG2 cell line; [4]) of over 240.

`Cn1c(=O)n(-c2ccc(C(C)(C)C#N)cc2)c2c3cc(C#Cc4cccnc4)ccc3ncc21` [Compound 10, reference compound] was tested, and the “HepG2 TC50” value (HepG2 cell line; human, 48 h) was 0.14^d μM.

`Cn1c(=O)n(-c2ccc(C(C)(C)C#N)cc2)c2c3cc(-c4ccccc4)ccc3ncc21` [Compound 4c, 2-Methyl-2-(4-(3-methyl-2-oxo-8-phenyl-2,3-dihydro-1H-imidazo[4,5-c]quinolin-1-yl)phenyl)propanenitrile] was tested, and the “HepG2 TC50” value (HepG2 cell line; human, 48 h) was 1.82^d μM.

`Cn1cc(-c2ccc3ncc4c(c3c2)n(-c2ccc(C(C)(C)C#N)cc2)c(=O)n4C)cn1` [Compound 4e, 2-Methyl-2-(4-(3-methyl-8-(1-methyl-1H-pyrazol-4-yl)-2-oxo-2,3-dihydro-1H-imidazo[4,5-c]quinolin-1-yl)phenyl)propanenitrile] was tested, and the cell cycle progression [1] was “reducing the proportion of cells in G1 and increasing multinucleated cells”, the “phosphorylated PI (PIP) levels vs control cells” value [2] was “significant (albeit incomplete) reduction in PIP levels” and the “transferrin uptake / endocytosis” value [3] was “did not significantly reduce transferrin endocytosis”.

For `CN(C)c1ccc(-n2c(=O)n(C)c3cnc4ccc(-c5ccncc5)cc4c32)cc1` [Compound 16h, 1-(4-(Dimethylamino)phenyl)-3-methyl-8-(pyridin-4-yl)-1H-imidazo[4,5-c]quinolin-2(3H)-one], the “HepG2 TC50” value (HepG2 cell line; human, 48 h) was 2.34 µM.

`CN1CCN(c2ccc3ncc4c(c3c2)n(-c2ccc(C(C)(C)C#N)cc2)c(=O)n4C)CC1` [Compound 5a, 2-Methyl-2-(4-(3-methyl-8-(4-methylpiperazin-1-yl)-2-oxo-2,3-dihydro-1H-imidazo[4,5-c]quinolin-1-yl)phenyl)propanenitrile] gave a Selectivity (HepG2 cell line; [5]) of over 5.

`Cn1c(=O)n(-c2ccc(C(C)(C)C#N)cc2)c2c3cc(-c4ccncc4)ccc3ncc21` [Compound 4a] was tested, and the “HepG2 TC50” value (HepG2 cell line; human, 48 h) was 3.43 µM.

Compound `Cc1ccc2ncc3c(c2c1)n(-c1ccc(C(C)(C)C#N)cc1)c(=O)n3C` [Compound 8, 2-(4-(3,8-Dimethyl-2-oxo-2,3-dihydro-1H-imidazo[4,5-c]quinolin-1-yl)phenyl)-2-methylpropanenitrile] has a Selectivity (HepG2 cell line; [5]) of over 10.

`Cn1c(=O)n(-c2ccc(C(C)(C)C#N)cc2)c2c3cc(-c4ccc(C(F)(F)F)nc4)ccc3ncc21` [Compound 4d, 2-Methyl-2-(4-(3-methyl-2-oxo-8-(6-(trifluoromethyl)pyridin-3-yl)-2,3-dihydro-1H-imidazo[4,5-c]quinolin-1-yl)phenyl)propanenitrile] was tested, and the Selectivity (HepG2 cell line; [5]) was over 470.

In the case of `Cn1c(=O)n(-c2ccc(C(C)(C)C#N)cc2)c2c3ccccc3ncc21` [Compound 9, 2-Methyl-2-(4-(3-methyl-2-oxo-2,3-dihydro-1H-imidazo[4,5-c]quinolin-1-yl)phenyl)propanenitrile], the Selectivity (HepG2 cell line; [5]) is reported as over 80 and the “HepG2 TC50” value (HepG2 cell line; human, 48 h) is reported as over 50 µM.

For `Cn1c(=O)n(-c2ccc(C(C)(C)C#N)cc2)c2c3cc(-c4cc5ccccc5s4)ccc3ncc21` [Compound 4f, 2-(4-(8-(Benzo[b]thiophen-2-yl)-3-methyl-2-oxo-2,3-dihydro-1H-imidazo[4,5-c]quinolin-1-yl)phenyl)-2-methylpropanenitrile], the Selectivity (HepG2 cell line; [5]) was over 460 and the “HepG2 toxicity (in words)” value (HepG2 cell line; human, 48 h) was “no HepG2 toxicity observed”.

Compound `Cn1c(=O)n(-c2ccc(C#N)cc2)c2c3cc(-c4cnc5ccccc5c4)ccc3ncc21` [Compound 16b, 4-(3-Methyl-2-oxo-8-(quinolin-3-yl)-2,3-dihydro-1H-imidazo[4,5-c]quinolin-1-yl)benzonitrile] has a Selectivity (HepG2 cell line; [4]) of over 540.

`Cn1c(=O)n(-c2ccc(N3CCOCC3)cc2)c2c3cc(-c4ccncc4)ccc3ncc21` [Compound 16i, 3-Methyl-1-(4-morpholinophenyl)-8-(pyridin-4-yl)-1H-imidazo[4,5-c]quinolin-2(3H)-one] was tested, and the Selectivity (HepG2 cell line; [4]) was over 24.
